Our source for the MIC and dose excreted values is US6136823A, “Pyridonecarboxylic acid derivatives or salts thereof and drugs containing the same as the active ingredient” (Wakunaga Pharmaceutical Co., Ltd., priority 1996, dated 2000).

The test system of series [1] is S. aureus 209P. The experiment in a line: Antibacterial action, MIC against standard strain S. aureus 209P (standard method of the Japan Chemotherapeutic Association). The settings on record: Staphylococcus aureus, read-out: MIC S.a. Type of series: cell-based. How it is done: (§1) The minimum inhibitory concentrations (MIC; μg/ml) of specimen compounds against standard strains [S. aureus 209P (S.a.), S. epidermidis IFO 12293 (S.e.) and P. aeruginosa IFO 3445 (P.a.)] were determined in accordance with the standard method (CHEMOTHERAPY, 29(1), 76, 1981) prescribed by The Japan Chemotherapeutic Association.

Series [2] deals with S. epidermidis IFO 12293. The series is described as follows: Antibacterial action, MIC against standard strain S. epidermidis IFO 12293. Type of series: cell-based. To be noted: Staphylococcus epidermidis. How it is done:
as §1

The subject of series [3] is P. aeruginosa IFO 3445. The experiment in a line: Antibacterial action, MIC against standard strain P. aeruginosa IFO 3445. The series is classed as cell-based. To be noted: Pseudomonas aeruginosa. How it is done: as §1
Series [4] is described as follows: Total recovery rate in urine and bile upon oral administration to rats. Type of series: in vivo, male SD rats. To be noted: rat, 20 mg/kg or 10 mg/kg, urine plus bile, 0-24 hours. How it is done:
(§2) The recovery rates in both urine and bile of compounds according to the present invention upon oral administration to rats were determined to evaluate their absorbability and excretory behavior.
(§3) Male SD rats aged 6 weeks fasted overnight were forced to orally administer a 0.5% methyl cellulose suspension (20 mg/10 ml/kg or 10 mg/10 ml/kg) of each of specimen compounds using a peroral sound. Urine was collected twice in the course of from 0 up to 6 hours and from 6 up to 24 hours after the administration. The concentration of the specimen compound in the urine was determined by a paper disk method using Bacillus subtilis ATCC 6633 as a tester strain to find its recovery rate in urine.
(§4) A polyethylene tube was inserted into the common bile ducts of male SD rats aged 6 weeks fasted overnight under etherization. After the anesthetic wore away, the rats were forced to orally administer each of the specimen compounds in the same manner as in the item (a) to collect bile till 24 hours after the administration. The concentration of the specimen compound in the bile was determined in the same manner as in the item (a) after hydrolysis with an alkali (0.1N, NaOH, 37° C., 1 hour) or without being subjected to any treatment, thereby finding its recovery rate in bile.

A short description of series [5]: Urinary recovery rate upon oral administration to rats. The series is classed as in vivo, male SD rats. The settings on record: urine, rat, 20 mg/kg or 10 mg/kg, paper disk method; for dose excreted at 6 h: 0-6 hours; for dose excreted at 24 h: 6-24 hours. How it is done: as §3, with “The recovery rates in both urine and bile of compounds according to the present invention upon oral administration to rats were determined to evaluate their absorbability and excretory behavior. (a) Urinary Recovery Rate Male” for “Male”

Series [6] in a line: Biliary recovery rate upon oral administration to rats. Type of series: in vivo, male SD rats. To be noted: bile, rat, 20 mg/kg or 10 mg/kg, 0-24 hours, after hydrolysis with the alkali. How it is done: as §2
(2) Biliary Recovery Rate
as §4

[7] abbreviates: IFO12293, S. epidermidis IFO 12293, read-out: MIC S.e.
The mark [8] stands for this setting: IFO3445, P. aeruginosa IFO 3445, read-out: MIC P.a.

Each structure is given as a SMILES string. ≈ marks a conversion by molar mass, not a printed value. Where two headings read alike, the source gives them in different places.

One may read the MIC as the least concentration at which growth counts as inhibited. Take `CNc1c(F)cc2c(=O)c(C(=O)O)cn(-c3cc(N)c(F)cc3Cl)c2c1Cl` [Example 19, 1-(5-Amino-2-chloro-4-fluorophenyl)-8-chloro-6-fluoro-7-methylamino-4-oxo-1,4-dihydroquinoline-3-carboxylic Acid]: the values for the MIC in series [1] (S. aureus 209P), in series [2] (setting [7]) and in series [3] (setting [8]) were 0.013 µg/mL (≈ 0.0314 µM), 0.05 µg/mL (≈ 0.121 µM) and 0.39 µg/mL (≈ 0.942 µM), respectively.
As to `C=CCNc1c(F)cc2c(=O)c(C(=O)O)cn(-c3nc(N)c(F)cc3F)c2c1Cl` [Example 77, 7-Allylamino-1-(6-amino-3,5-difluoropyridin-2-yl)-8-chloro-6-fluoro-4-oxo-1,4-dihydroquinoline-3-carboxylic Acid], the figures for the MIC in series [1] (S. aureus 209P), in series [2] (setting [7]) and in series [3] (setting [8]) were 0.013 µg/mL (≈ 0.0306 µM), 0.013 µg/mL (≈ 0.0306 µM) and 0.39 µg/mL (≈ 0.918 µM), respectively.
As for `CNc1c(F)cc2c(=O)c(C(=O)O)cn(-c3cc(N)c(F)cc3F)c2c1C` [Example 16, 1-(5-Amino-2,4-difluorophenyl)-6-fluoro-8-methyl-7-methylamino-4-oxo-1,4-dihydroquinoline-3-carboxylic Acid], the MIC is 0.013 µg/mL (≈ 0.0345 µM) in series [1] (S. aureus 209P), 0.05 µg/mL (≈ 0.133 µM) in series [2] (setting [7]) and 0.39 µg/mL (≈ 1.03 µM) in series [3] (setting [8]).
Regarding `Nc1cc(-n2cc(C(=O)O)c(=O)c3cc(F)c(N)c(Cl)c32)c(F)cc1F` [Example 11, 7-Amino-1-(5-amino-2,4-difluorophenyl)-8-chloro-6-fluoro-4-oxo-1,4-dihydroquinoline-3-carboxylic Acid], the dose excreted at 24 h in series [4] came out at 113%; in series [5], 13.7%; in series [6], 90%. In series [5], this molecule displayed a dose excreted at 6 h of 9.7%. Also, the MIC was 0.013 µg/mL (≈ 0.0339 µM) in series [1] (S. aureus 209P), 0.05 µg/mL (≈ 0.13 µM) in series [2] (setting [7]) and 0.2 µg/mL (≈ 0.521 µM) in series [3] (setting [8]).
On to `COc1c(F)cc2c(=O)c(C(=O)O)cn(-c3cc(N)c(F)cc3F)c2c1C` [Example 99, 1-(5-Amino-2,4-difluorophenyl)-6-fluoro-7-methoxy-8-methyl-4-oxo-1,4-dihydroquinoline-3-carboxylic Acid], for which the MIC worked out at 0.013 µg/mL (≈ 0.0344 µM) in series [1] (S. aureus 209P), 0.05 µg/mL (≈ 0.132 µM) in series [2] (setting [7]) and 0.78 µg/mL (≈ 2.06 µM) in series [3] (setting [8]).
On to `O=C(O)c1cn(C2CC2)c2cc(N3CCNCC3)c(F)cc2c1=O` [Cyprofloxacin, reference compound], for which the MIC came to 0.1 µg/mL (≈ 0.302 µM) in series [1] (209P); 0.78 µg/mL (≈ 2.35 µM) in series [2] (IFO12293, read-out: MIC S.e.); 0.39 µg/mL (≈ 1.18 µM) in series [3] (IFO3445, read-out: MIC P.a.).
In the case of `Cc1c(NCCCO)c(F)cc2c(=O)c(C(=O)O)cn(-c3cc(N)c(F)cc3F)c12` [Example 88, 1-(5-Amino-2,4-difluorophenyl)-8-methyl-6-fluoro-7-(3-hydroxy-n-propylamino)-4-oxo-1,4-dihydroquinoline-3-carboxylic Acid], the MIC in series [1] (S. aureus 209P) was found to be 0.013 µg/mL (≈ 0.0309 µM); in series [2] (setting [7]), 0.025 µg/mL (≈ 0.0593 µM); in series [3] (setting [8]), 0.78 µg/mL (≈ 1.85 µM).
With `Nc1cc(-n2cc(C(=O)O)c(=O)c3cc(F)c(N4CC(N)C4)c(Cl)c32)c(F)cc1F` [Referential compound, 7(3-Aminoazetidin-1-yl)-1-(5-amino-2,4-difluoro-phenyl)-8-chloro-6-fluoo-4-oxo-1,4-dihydroquinoline-3-carboxylic acid, reference compound], the dose excreted at 24 h in series [4] stood at 21.5%; in series [5], 2.7%; in series [6] it was 11.1%. The dose excreted at 6 h in series [5] came to 7.6%.
As for `C[C@@H]1CN(c2c(F)c(N)c3c(=O)c(C(=O)O)cn(C4CC4)c3c2F)C[C@H](C)N1` [Sparfloxacin, reference compound], the figures for the MIC in series [1] (S. aureus 209P), in series [2] (setting [7]) and in series [3] (setting [8]) were 0.05 µg/mL (≈ 0.127 µM), 0.2 µg/mL (≈ 0.51 µM) and 0.78 µg/mL (≈ 1.99 µM), respectively.
`Cc1c(N)c(F)cc2c(=O)c(C(=O)O)cn(-c3cc(N)c(F)cc3F)c12` [Example 12, 7-Amino-1-(5-amino-2,4-difluorophenyl)-6-fluoro-8-methyl-4-oxo-1,4-dihydroquinoline-3-carboxylic Acid]: the dose excreted at 24 h came to 97.3% in series [4], 10.8% in series [5] and 81.7% in series [6]. This molecule gave a dose excreted at 6 h in series [5] of 4.8%. Moreover, the MIC in series [1] (S. aureus 209P) worked out at 0.013 µg/mL (≈ 0.0358 µM); in series [2] (setting [7]), 0.05 µg/mL (≈ 0.138 µM); in series [3] (setting [8]) it was 0.1 µg/mL (≈ 0.275 µM).
Consider `CNc1c(F)cc2c(=O)c(C(=O)O)cn(-c3nc(N)c(F)cc3F)c2c1Br` [Example 30, 1-(6-Amino-3,5-difluoropyridin-2-yl)-8-bromo-6-fluoro-7-methylamino-4-oxo-1,4-dihydroquinoline-3-carboxylic Acid], for which the MIC was 0.006 µg/mL (≈ 0.0135 µM) in series [1] (S. aureus 209P), 0.025 µg/mL (≈ 0.0564 µM) in series [2] (setting [7]) and 0.78 µg/mL (≈ 1.76 µM) in series [3] (setting [8]).
Turning to `C[C@H]1COc2c(N3CCN(C)CC3)c(F)cc3c(=O)c(C(=O)O)cn1c23` [Levofloxacin, reference compound], the figures for the dose excreted at 24 h in series [4], in series [5] and in series [6] were 83.2%, 13.7% and 48.3%, respectively. The molecule further registered a dose excreted at 6 h in series [5] of 21.2%. Further, the MIC stood at 0.2 µg/mL (≈ 0.553 µM) in series [1] (S. aureus 209P), 0.39 µg/mL (≈ 1.08 µM) in series [2] (setting [7]) and 0.78 µg/mL (≈ 2.16 µM) in series [3] (setting [8]).
As for `CNc1c(F)c(C)c2c(=O)c(C(=O)O)cn(-c3cc(N)c(F)cc3F)c2c1C` [Example 59, 1-(5-Amino-2,4-difluorophenyl)-6-fluoro-5,8-dimethyl-7-methylamino-4-oxo-1,4-dihydroquinoline-3-carboxylic Acid], the MIC in series [1] (S. aureus 209P) came out at 0.006 µg/mL (≈ 0.0153 µM); in series [2] (setting [7]), 0.013 µg/mL (≈ 0.0332 µM); in series [3] (setting [8]), 0.39 µg/mL (≈ 0.997 µM).
Take `CNc1c(F)cc2c(=O)c(C(=O)O)cn(-c3nc(N)c(F)cc3F)c2c1Cl` [Example 28, 1-(6-Amino-3,5-difluoropyridin-2-yl)-8-chloro-6-fluoro-7-methylamino-4-oxo-1,4-dihydroquinoline-3-carboxylic Acid]: the results for the MIC in series [1] (S. aureus 209P), in series [2] (setting [7]) and in series [3] (setting [8]) were 0.006 µg/mL (≈ 0.015 µM), 0.025 µg/mL (≈ 0.0627 µM) and 0.39 µg/mL (≈ 0.978 µM), respectively.
With `CNc1c(F)cc2c(=O)c(C(=O)O)cn(-c3cc(N)c(F)cc3F)c2c1Cl` [Example 14, 1-(5-Amino-2,4-difluorophenyl)-8-chloro-6-fluoro-7-methylamino-4-oxo-1,4-dihydroquinoline-3-carboxylic Acid], the dose excreted at 24 h in series [4] amounted to 107%; in series [5], 2.6%; in series [6], 103%. For the same molecule, the dose excreted at 6 h in series [5] was found to be 1.2%. In addition, the MIC in series [1] (S. aureus 209P) came out at 0.013 µg/mL (≈ 0.0327 µM); in series [2] (setting [7]) it was 0.025 µg/mL (≈ 0.0629 µM); in series [3] (setting [8]), 0.2 µg/mL (≈ 0.503 µM).
Turning to `CNc1c(F)c(N)c2c(=O)c(C(=O)O)cn(-c3cc(N)c(F)cc3F)c2c1Cl` [Example 70, 5-Amino-1-(5-amino-2,4-difluorophenyl)-8-chloro-6-fluoro-7-methylamino-4-oxo-1,4-dihydroquinoline-3-carboxylic Acid], the MIC stood at 0.013 µg/mL (≈ 0.0315 µM) in series [1] (S. aureus 209P), 0.025 µg/mL (≈ 0.0606 µM) in series [2] (setting [7]) and 0.2 µg/mL (≈ 0.485 µM) in series [3] (setting [8]).
On the same counts, the results for `CNc1c(F)c(C)c2c(=O)c(C(=O)O)cn(-c3cc(N)c(F)cc3F)c2c1Cl` [Example 56, 1-(5-Amino-2,4-difluorophenyl)-8-chloro-6-fluoro-5-methyl-7-methylamino-4-oxo-1,4-dihydroquinoline-3-carboxylic Acid] are 0.006 µg/mL (≈ 0.0146 µM), 0.013 µg/mL (≈ 0.0316 µM) and 0.2 µg/mL (≈ 0.486 µM).
The matching figures for `CNc1c(F)c(O)c2c(=O)c(C(=O)O)cn(-c3cc(N)c(F)cc3F)c2c1C` [Example 98, 1-(5-Amino-2,4-difluorophenyl)-6-fluoro-5-hydroxy-8-methyl-7-methylamino-4-oxo-1,4-dihydroquinoline-3-carboxylic Acid]: 0.013 µg/mL (≈ 0.0331 µM), 0.013 µg/mL (≈ 0.0331 µM) and 0.39 µg/mL (≈ 0.992 µM).
For `NC1CCN(c2nc3c(cc2F)c(=O)c(C(=O)O)cn3-c2ccc(F)cc2F)C1` (stereo not drawn) [Tosufloxacin, reference compound], the figures for the dose excreted at 24 h in series [4], in series [5] and in series [6] were 40.5%, 12.3% and 9.2%, respectively. In series [5], this molecule displayed a dose excreted at 6 h of 19%. Further, the MIC in series [1] (S. aureus 209P) came out at 0.05 µg/mL (≈ 0.124 µM); in series [2] (setting [7]) it was 0.2 µg/mL (≈ 0.495 µM); in series [3] (setting [8]) it was 0.39 µg/mL (≈ 0.965 µM).
